Data: patent US20040224987A1, “Crystalline form C of omeprazole sodium and the related process of its preparation, a crystalline form D of omeprazole sodium and the related process of its preparation, and a process for preparation of crystalline form a of omeprazole sodium” (DR. REDDY'S LABORATORIES LIMITED, priority 2003, published 2004)
Read-outs that look alike come from different tables or passages of the source.

Key:
[1] = hygroscopicity of crystalline forms of omeprazole sodium; format: physicochemical; conditions: forms obtained by the processes of the invention
[2] = stability of crystalline forms of omeprazole sodium
[3] = cited from earlier work; for physical stability: forms disclosed in WO 99/00380
[4] = Form-A prepared according to Example 3 of WO99/00380, dried substance with one strongly bound water molecule, normal conditions; cited from earlier work

| hygroscopicity [1] | SMILES | physical stability [3] | also measured |
| --- | --- | --- | --- |
| non-hygroscopic | COc1ccc2[n-]c([S+]([O-])Cc3ncc(C)c(OC)c3C)nc2c1.[Na+] (stereo not drawn) [Form D, omeprazole sodium] |  |  |
| non-hydroscopic | COc1ccc2[n-]c([S+]([O-])Cc3ncc(C)c(OC)c3C)nc2c1.[Na+] (stereo not drawn) [Form-A, omeprazole sodium] |  | thermodynamic stability ([2]; Form-A obtained by the process of the invention, compared with prior art processes): thermodynamically more stable; stability (kind not specified) ([2]; forms obtained by the processes of the invention): stable; thermodynamic stability ([3]; Form-A produced according to Example 3 of WO 99/00380): thermodynamically unstable; hygroscopicity [4]: very hygroscopic |

Continued, compound first:

| SMILES | hygroscopicity [1] | physical stability [3] | also measured |
| --- | --- | --- | --- |
| COc1ccc2[n-]c([S+]([O-])Cc3ncc(C)c(OC)c3C)nc2c1.[Na+] (stereo not drawn) [Form C, omeprazole sodium] | less hygroscopic than Form A |  |  |
| COc1ccc2[n-]c([S+]([O-])Cc3ncc(C)c(OC)c3C)nc2c1.[Na+] (stereo not drawn) [Form-B, omeprazole sodium] |  | physically stable |  |
| COc1ccc2[n-]c([S+]([O-])Cc3ncc(C)c(OC)c3C)nc2c1.[Na+] (stereo not drawn) [Form-X, omeprazole sodium] |  | physically unstable |  |
